From US9938322B2, “β-hairpin peptidomimetics” (priority 2013, dated 2018)
*1 amine or outer side, *2 acyl side, *3 side chain or, on linkers, in order; H or OH if unused. Where a SMILES comes first, the peptide text is derived from it. [ ]: non-standard residue; d: D form. Ala(thiazol-2-yl) = N[C@@H](Cc1nccs1)C(=O)O; Oic = O=C(O)[C@@H]1C[C@@H]2CCCC[C@@H]2N1; X2 = O=C([C@H](CCNCc1ccccn1)N[*:1])[*:2]; Phe(4-F) = N[C@@H](Cc1ccc(F)cc1)C(=O)O; Pro(3S-OH) = O=C(O)[C@H]1NCC[C@@H]1O; X1 = CC(C)NC[C@H](N[*:1])C(=O)[*:2]; Orn(iPr) = CC(C)NCCC[C@H](N)C(=O)O; Cha = N[C@@H](CC1CCCCC1)C(=O)O; Chg = N[C@H](C(=O)O)C1CCCCC1; Tle = CC(C)(C)[C@H](N)C(=O)O; dDab = NCC[C@@H](N)C(=O)O; hSer = N[C@@H](CCO)C(=O)O; Orn = NCCC[C@H](N)C(=O)O; Api = NC1(C(=O)O)CCNCC1; Dab = NCC[C@H](N)C(=O)O; Nva = CCC[C@H](N)C(=O)O; Dap = NC[C@H](N)C(=O)O

Test system: human red blood cells (hRBC)
Experiment: Hemolysis of human red blood cells
Type: cell-based
Settings: red cells of human, 1 h, 100
Procedure: Lyophilized peptides were weighed on a Microbalance (Mettler MT5) and dissolved in sterile water to a final concentration of 1 mg/ml. Stock solutions were kept at +4° C., light protected.
The peptides were tested for their hemolytic activity against human red blood cells (hRBC). Fresh hRBC were washed three times with phosphate buffered saline (PBS) and centrifuged for 10 min at 2000×g. Compounds (100 μg/ml) were incubated with 20% hRBC (v/v) for 1 h at 37° C. and shaking at 300 rpm. The final erythrocyte concentration was approximately 0.9×10^9 cells/ml. A value of 0% and 100% cell lyses, respectively, was determined by incubation of hRBC in the presence of PBS containing 0.001% acetic acid and 2.5% Triton X-100 in H2O, respectively. The samples were centrifuged, the supernatants were 8-fold diluted in PBS buffer and the optical densities (OD) were measured at 540 nm. The 100% lyses value (OD540H2O) gave an OD540 of approximately 0.5-1.0.
Percent hemolysis was calculated as follows: (OD540peptide/OD540H2O)×100%.

| Structure (SMILES) | Hemolysis at 100 μg/ml [%] |
| --- | --- |
| C[C@@H]1NC(=O)[C@H](C(C)(C)C)NC(=O)[C@H](CCN)NC(=O)[C@H](Cc2c[nH]c3ccccc23)NC(=O)[C@H](CCN)NC(=O)[C@H](CCN)NC(=O)[C@H](CCCN)NC(=O)[C@H](CCN)NC(=O)[C@H](CC2CCCCC2)NC(=O)[C@H](CO)NC(=O)[C@H](Cc2c[nH]c3ccccc23)NC(=O)[C@@H]2CCCN2C(=O)[C@H]2CCCN2C(=O)[C@H](CO)NC1=O [Ex. 1] (cyclo(WS[Cha][Dab][Orn][Dab][Dab]W[Dab][Tle]AS[dP]P)) | 1 |
| COC[C@@H]1NC(=O)[C@H](C(C)(C)C)NC(=O)[C@H](CCN)NC(=O)[C@H](Cc2c[nH]c3ccccc23)NC(=O)[C@H](CCN)NC(=O)[C@H](CCN)NC(=O)[C@H](CCCN)NC(=O)[C@H](CCN)NC(=O)[C@H](CC2CCCCC2)NC(=O)[C@H](C)NC(=O)[C@H](Cc2c[nH]c3ccccc23)NC(=O)[C@@H]2CCCN2C(=O)[C@H]2CCCN2C(=O)[C@H](CO)NC1=O [Ex. 5] (cyclo(WA[Cha][Dab][Orn][Dab][Dab]W[Dab][Tle]S(Me)S[dP]P)) | 0.5 |
| COC[C@@H]1NC(=O)[C@H](C(C)(C)C)NC(=O)[C@H](CCN)NC(=O)[C@H](Cc2c[nH]c3ccccc23)NC(=O)[C@H](CCN)NC(=O)[C@@H](CCN)NC(=O)[C@H](CCCN)NC(=O)[C@H](CCN)NC(=O)[C@H](CC2CCCCC2)NC(=O)[C@H](CN)NC(=O)[C@H](Cc2c[nH]c3ccccc23)NC(=O)[C@@H]2CCCN2C(=O)[C@H]2CCCN2C(=O)[C@H](CO)NC1=O [Ex. 6] (cyclo(W[Dap][Cha][Dab][Orn][dDab][Dab]W[Dab][Tle]S(Me)S[dP]P)) | 3 |
| C[C@@H]1NC(=O)[C@H](C(C)(C)C)NC(=O)[C@H](CCN)NC(=O)[C@H](Cc2c[nH]c3ccccc23)NC(=O)[C@H](CCN)NC(=O)[C@@H](CCN)NC(=O)[C@H](CCCN)NC(=O)[C@H](CCN)NC(=O)[C@H](CC2CCCCC2)NC(=O)[C@H](CN)NC(=O)[C@H](Cc2c[nH]c3ccccc23)NC(=O)[C@@H]2CCCN2C(=O)[C@H]2CCCN2C(=O)[C@H](CO)NC1=O [Ex. 10] (cyclo(W[Dap][Cha][Dab][Orn][dDab][Dab]W[Dab][Tle]AS[dP]P)) | 3.5 |
| C[C@@H]1NC(=O)[C@H](C(C)(C)C)NC(=O)[C@H](CCN)NC(=O)[C@H](Cc2c[nH]c3ccccc23)NC(=O)[C@H](CCN)NC(=O)[C@@H](CCN)NC(=O)[C@H](CCCN)NC(=O)[C@H](CCNCc2ccccn2)NC(=O)[C@H](CC2CCCCC2)NC(=O)[C@H](CN)NC(=O)[C@H](Cc2c[nH]c3ccccc23)NC(=O)[C@@H]2CCCN2C(=O)[C@H]2CCCN2C(=O)[C@H](CO)NC1=O [Ex. 11] (cyclo(W[Dap][Cha][X2][Orn][dDab][Dab]W[Dab][Tle]AS[dP]P)) | 0 |
| COC[C@@H]1NC(=O)[C@H](C(C)(C)C)NC(=O)[C@H](CCN)NC(=O)[C@H](Cc2c[nH]c3ccccc23)NC(=O)[C@H](CCN)NC(=O)[C@@H](CCN)NC(=O)[C@H](CCCN)NC(=O)[C@H](CCN)NC(=O)[C@H](CC2CCCCC2)NC(=O)[C@H](C)NC(=O)[C@H](Cc2c[nH]c3ccccc23)NC(=O)[C@@H]2C[C@@H]3CCCC[C@@H]3N2C(=O)[C@H]2CCCN2C(=O)[C@H](CO)NC1=O [Ex. 54, cyclo(-Trp-Ala-Cha-Dab-Orn-^DDab-Dab-Trp-Dab-tBuGly-Ser(Me)-Ser-^DPro-Oic-)] (cyclo(A[Cha][Dab][Orn][dDab][Dab]W[Dab][Tle]S(Me)S[dP][Oic]W)) | 3 |
| CC(C)C[C@@H]1NC(=O)[C@@H]2[C@@H](O)CCN2C(=O)[C@H]2CCCN2C(=O)[C@H](CO)NC(=O)[C@H](C)NC(=O)[C@H](Cc2ccc(O)cc2)NC(=O)[C@H](CCN)NC(=O)[C@H](Cc2c[nH]c3ccccc23)NC(=O)[C@H](CCN)NC(=O)[C@@H](CCN)NC(=O)[C@H](CCCN)NC(=O)[C@H](CCN)NC(=O)[C@H](Cc2ccc(O)cc2)NC(=O)[C@H](CO)NC1=O [Ex. 55] (cyclo(LSY[Dab][Orn][dDab][Dab]W[Dab]YAS[dP][Pro(3S-OH)])) | 1 |
| C[C@@H]1NC(=O)[C@H](C(C)(C)C)NC(=O)[C@H](CCN)NC(=O)[C@H](Cc2c[nH]c3ccccc23)NC(=O)[C@H](CCN)NC(=O)C2(CCNCC2)NC(=O)[C@H](CCCN)NC(=O)[C@H](CCN)NC(=O)[C@H](CC2CCCCC2)NC(=O)[C@H](CN)NC(=O)[C@H](Cc2c[nH]c3ccccc23)NC(=O)[C@@H]2CCCN2C(=O)[C@H]2CCCN2C(=O)[C@H](CO)NC1=O [Ex. 62] (cyclo(W[Dap][Cha][Dab][Orn][Api][Dab]W[Dab][Tle]AS[dP]P)) | 1 |
| CC(C)C[C@@H]1NC(=O)[C@@H]2CCCN2C(=O)[C@H]2CCCN2C(=O)[C@H](CO)NC(=O)[C@H](C)NC(=O)[C@H](C(C)(C)C)NC(=O)[C@H](CCN)NC(=O)[C@H](Cc2c[nH]c3ccccc23)NC(=O)[C@H](CN)NC(=O)[C@@H](CCN)NC(=O)[C@H](CCCN)NC(=O)[C@H](CCN)NC(=O)[C@H](Cc2ccc(O)cc2)NC(=O)[C@H](CO)NC1=O [Ex. 103] (cyclo(LSY[Dab][Orn][dDab][Dap]W[Dab][Tle]AS[dP]P)) | 1 |
| CCC[C@@H]1NC(=O)[C@@H]2CCCN2C(=O)[C@H]2CCCN2C(=O)[C@H](CO)NC(=O)[C@H](C)NC(=O)[C@H](C(C)(C)C)NC(=O)[C@H](CCN)NC(=O)[C@H](Cc2c[nH]c3ccccc23)NC(=O)[C@H](CCN)NC(=O)[C@@H](CCN)NC(=O)[C@H](CCCN)NC(=O)[C@H](CCN)NC(=O)[C@H](Cc2ccc(F)cc2)NC(=O)[C@H](CO)NC1=O [Ex. 104] (cyclo([Nva]S[Phe(4-F)][Dab][Orn][dDab][Dab]W[Dab][Tle]AS[dP]P)) | 0.5 |
| COC[C@@H]1NC(=O)[C@H](Cc2c[nH]c3ccccc23)NC(=O)[C@@H]2CCCN2C(=O)[C@H]2CCCN2C(=O)[C@H](CO)NC(=O)[C@H](C)NC(=O)[C@H](C(C)(C)C)NC(=O)[C@H](CCN)NC(=O)[C@H](Cc2c[nH]c3ccccc23)NC(=O)[C@H](CCN)NC(=O)[C@@H](CCN)NC(=O)[C@H](CCCN)NC(=O)[C@H](CCN)NC(=O)[C@H](CC2CCCCC2)NC1=O [compound 2] (cyclo(WS(Me)[Cha][Dab][Orn][dDab][Dab]W[Dab][Tle]AS[dP]P)) | 1.7 |
| C[C@@H]1NC(=O)[C@H](Cc2c[nH]c3ccccc23)NC(=O)[C@@H]2CCCN2C(=O)[C@H]2CCCN2C(=O)[C@H](CO)NC(=O)[C@H](C)NC(=O)[C@H](C(C)(C)C)NC(=O)[C@H](CCN)NC(=O)[C@H](Cc2c[nH]c3ccccc23)NC(=O)[C@H](CCN)NC(=O)[C@@H](CCN)NC(=O)[C@H](CCCN)NC(=O)[C@H](CCN)NC(=O)[C@H](C2CCCCC2)NC1=O [compound 3] (cyclo(WA[Chg][Dab][Orn][dDab][Dab]W[Dab][Tle]AS[dP]P)) | 2.5 |
| C[C@@H]1NC(=O)[C@H](Cc2c[nH]c3ccccc23)NC(=O)[C@@H]2CCCN2C(=O)[C@H]2CCCN2C(=O)[C@H](CO)NC(=O)[C@H](C)NC(=O)[C@H](C(C)(C)C)NC(=O)[C@H](CCN)NC(=O)[C@H](Cc2c[nH]c3ccccc23)NC(=O)[C@H](CCN)NC(=O)[C@@H](CCN)NC(=O)[C@H](CCCN)NC(=O)[C@H](CCN)NC(=O)[C@H](Cc2ccc(O)cc2)NC1=O [compound 4] (cyclo(WAY[Dab][Orn][dDab][Dab]W[Dab][Tle]AS[dP]P)) | 1 |
| C[C@@H]1NC(=O)[C@H](Cc2c[nH]c3ccccc23)NC(=O)[C@@H]2CCCN2C(=O)[C@H]2CCCN2C(=O)[C@H](CO)NC(=O)[C@H](Cc2nccs2)NC(=O)[C@H](C(C)(C)C)NC(=O)[C@H](CCN)NC(=O)[C@H](Cc2c[nH]c3ccccc23)NC(=O)[C@H](CCN)NC(=O)[C@@H](CCN)NC(=O)[C@H](CCCN)NC(=O)[C@H](CCN)NC(=O)[C@H](CC2CCCCC2)NC1=O [compound 7] (cyclo(WA[Cha][Dab][Orn][dDab][Dab]W[Dab][Tle][Ala(thiazol-2-yl)]S[dP]P)) | 8 |
| CC(C)NCCC[C@@H]1NC(=O)[C@H](CCN)NC(=O)[C@H](CC2CCCCC2)NC(=O)[C@H](CNC(C)C)NC(=O)[C@H](Cc2c[nH]c3ccccc23)NC(=O)[C@@H]2CCCN2C(=O)[C@H]2CCCN2C(=O)[C@H](CO)NC(=O)[C@H](CO)NC(=O)[C@H](C(C)(C)C)NC(=O)[C@H](CCN)NC(=O)[C@H](Cc2c[nH]c3ccccc23)NC(=O)[C@H](CCN)NC(=O)[C@@H](CCN)NC1=O [compound 8] (cyclo(W[X1][Cha][Dab][Orn(iPr)][dDab][Dab]W[Dab][Tle]SS[dP]P)) | 7 |
| CC(C)NC[C@@H]1NC(=O)[C@H](Cc2c[nH]c3ccccc23)NC(=O)[C@@H]2CCCN2C(=O)[C@H]2CCCN2C(=O)[C@H](CO)NC(=O)[C@H](C)NC(=O)[C@H](C(C)(C)C)NC(=O)[C@H](CCO)NC(=O)[C@H](Cc2c[nH]c3ccccc23)NC(=O)[C@H](CCN)NC(=O)[C@@H](CCN)NC(=O)[C@H](CCCN)NC(=O)[C@H](CCN)NC(=O)[C@H](CC2CCCCC2)NC1=O [compound 9] (cyclo(W[X1][Cha][Dab][Orn][dDab][Dab]W[hSer][Tle]AS[dP]P)) | 2 |
| C[C@@H]1NC(=O)[C@H](C(C)(C)C)NC(=O)[C@H](CCN)NC(=O)[C@H](Cc2c[nH]c3ccccc23)NC(=O)[C@H](CCN)NC(=O)[C@@H](CCN)NC(=O)[C@H](CCCN)NC(=O)[C@H](CCN)NC(=O)[C@H](CC2CCCCC2)NC(=O)[C@H](CCNCc2ccccn2)NC(=O)[C@H](Cc2c[nH]c3ccccc23)NC(=O)[C@@H]2CCCN2C(=O)[C@H]2CCCN2C(=O)[C@H](CO)NC1=O [compound 12] (cyclo(W[X2][Cha][Dab][Orn][dDab][Dab]W[Dab][Tle]AS[dP]P)) | 0 |
